Reference: patent US9884806B2, “Cyclic vinylogous amides as bromodomain inhibitors” (ICAHN SCHOOL OF MEDICINE AT MOUNT SINAI, priority 2013, dated 2018)

What was measured:
[1] = molecular target: T1, first bromodomain (BrD1) of human BRD4 (Homo sapiens, UniProt O60885); test: Fluorescence anisotropy binding assay (competition with FITC-labeled MS417 probe); conditions: FITC-MS417 probe 80 nM, PBS pH 7.4, 1 hour, 25° C., read-out: BRD4_1 IC50
T1 construct: the first bromodomain (BrD1) of human BRD4; poly-His (cleaved yes); made in house
In short: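 Competitive fluorescence anisotropy in PBS pH 7.4: 80 nM FITC-MS417 probe, 0.25 to 1 μM tag-cleaved BrD1, titrated unlabeled ligand, 1 hour at 25° C. IC50 values were fitted and converted to Ki using a corrected Cheng-Prusoff equation assuming one-site competition.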

BRD4_2 = molecular target: T2, BRD4_2 (Homo sapiens, UniProt O60885); test: Fluorescence anisotropy binding assay (competition with FITC-labeled MS417 probe), BRD4_2; conditions: FITC-MS417 probe 80 nM, PBS pH 7.4, 1 hour, 25° C.
T2 construct: contains two tandem bromodomains (BrD1 and BrD2)

Row | IC50 [1] [nM] | melting point [°C] | IC50 (BRD4_2) [nM] | Compound
1 | > 10000 | 190 to 195 | > 10000 | COc1ccc(C(=O)Nc2ccc(Cl)c(NC3=C(C)C(=O)CCC3)c2)cc1 [Example 05-43, N-(4-chloro-3-((2-methyl-3-oxocyclohex-1-en-1-yl)amino)phenyl)-4-methoxybenzamide]
2 | < 1000 | 199 to 201 | 1000 to 10000 | CC1=C(Nc2cc(NC(=O)c3ccccc3C)ccc2Cl)CCCC1=O [Example 05-44, N-(4-chloro-3-((2-methyl-3-oxocyclohex-1-en-1-yl)amino)phenyl)-2-methylbenzamide]
3 | < 1000 | 248 to 250 | 1000 to 10000 | CC1=C(Nc2ccc(NC(=O)C3CCCCC3)cc2Cl)CCCC1=O [Example 05-49, N-(3-chloro-4-((2-methyl-3-oxocyclohex-1-en-1-yl)amino)phenyl)-cyclohexanecarboxamide]
4 | < 1000 | 196 to 198 | < 1000 | CC1=C(Nc2cc(NS(=O)(=O)Cc3ccccc3)ccc2Cl)CCC1=O [Example 05-54, N-(4-chloro-3-((2-methyl-3-oxocyclopent-1-en-1-yl)amino)phenyl)-1-phenylmethanesulfonamide]

The next lines start with the molecule.

Row | Compound | IC50 [1] [nM] | melting point [°C] | IC50 (BRD4_2) [nM]
5 | CC1=C(Nc2ccc(NC(=O)c3ccccc3C)cc2Cl)CCC1=O [Example 05-41, N-(3-chloro-4-((2-methyl-3-oxocyclopent-1-en-1-yl)amino)phenyl)-2-methylbenzamide] | < 1000 | 280 to 283 | 1000 to 10000
6 | CC1=C(Nc2cccc(NC(=O)c3ccccc3C)c2Cl)CCC1=O [Example 05-42, N-(2-chloro-3-((2-methyl-3-oxocyclopent-1-en-1-yl)amino)phenyl)-2-methylbenzamide] | < 1000 | 118 to 120 | 1000 to 10000
7 | CC1=C(Nc2cc(NC(=O)C3CCCCC3)ccc2Cl)CCCC1=O [Example 05-45, N-(4-chloro-3-((2-methyl-3-oxocyclohex-1-en-1-yl)amino)phenyl)-cyclohexanecarboxamide] | < 1000 | 192 to 195 | 1000 to 10000
8 | CC1=C(Nc2cc(NC(=O)c3cccc4ccccc34)ccc2Cl)CCCC1=O [Example 05-46, N-(4-chloro-3-((2-methyl-3-oxocyclohex-1-en-1-yl)amino)phenyl)-1-naphthamide] | < 1000 | 245 to 247 | 1000 to 10000
9 | CC1=C(Nc2ccc(NC(=O)c3cccc4ccccc34)cc2Cl)CCCC1=O [Example 05-47, N-(3-chloro-4-((2-methyl-3-oxocyclohex-1-en-1-yl)amino)phenyl)-1-naphthamide] | < 1000 | 245 to 247 | 1000 to 10000
10 | CC1=C(Nc2ccc(NC(=O)c3ccccc3C)cc2Cl)CCCC1=O [Example 05-48, N-(3-chloro-4-((2-methyl-3-oxocyclohex-1-en-1-yl)amino)phenyl)-2-methylbenzamide] | < 1000 | 234 to 236 | 1000 to 10000
11 | CC1=C(Nc2cccc(NC(=O)C3CCCCC3)c2Cl)CCCC1=O [Example 05-51, N-(2-chloro-3-((2-methyl-3-oxocyclohex-1-en-1-yl)amino)phenyl)-cyclohexanecarboxamide] | 1000 to 10000 | 205 to 208 | > 10000
12 | CC1=C(Nc2cccc(NC(=O)c3cccc4ccccc34)c2Cl)CCCC1=O [Example 05-52, N-(2-chloro-3-((2-methyl-3-oxocyclohex-1-en-1-yl)amino)phenyl)-1-naphthamide] | < 1000 | 178 to 180 | 1000 to 10000
13 | CC1=C(Nc2cc(NS(C)(=O)=O)ccc2Cl)CCC1=O [Example 05-53, N-(4-chloro-3-((2-methyl-3-oxocyclopent-1-en-1-yl)amino)-phenyl)-methanesulfonamide] | 1000 to 10000 | 213 to 215 | 1000 to 10000
